The values below come from patent US12202829B2, “Heterocyclic compound” (FIMECS, Inc., priority 2018, dated 2025).

Where a name gives a salt, the structure may show the parent alone. Bounds are passed on as bounds.

This test addresses T1, human XIAP_BIR3 domain purified protein (Homo sapiens, UniProt P98170).
T1 construct: purchased R & D
The test is described as follows: XIAP binding inhibitory activity, HTRF method with b-Smac ligand. As to conditions: for IC50: second symbol of the cell, read-out: XIAP binding 50% inhibitory concentration (IC50 value); for inhibition at 3 µM: test compound 3 μM, first symbol of the cell, read-out: XIAP binding inhibition rate when the concentration of the test compound is 3 μM. The method in brief:
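HTRF competition: human XIAP BIR3 and C-terminally biotinylated Smac peptide AVPIAQK, each diluted to 90 nM before addition, in HEPES pH 7.5 buffer with NaCl, BSA, Triton X-100. Eu-cryptate anti-His/streptavidin-XL665 detection after ≥4 h at room temperature; inhibition % from 665/615 ratio versus no-compound control.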
In general terms: Time-resolved FRET reads energy transfer from a long-lived donor to a nearby acceptor.

T1 sequence (P98170 252-356 limits assumed): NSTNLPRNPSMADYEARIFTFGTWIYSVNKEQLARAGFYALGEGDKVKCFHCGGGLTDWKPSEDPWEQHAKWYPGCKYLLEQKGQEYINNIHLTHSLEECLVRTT

For the compound `CN[C@@H](C)C(=O)N[C@H](C(=O)N1CCN(C(=O)c2c(C(=O)NCCOCCOCCNC(=O)C[C@@H]3N=C(c4ccc(Cl)cc4)c4c(sc(C)c4C)-n4c(C)nnc43)c3ccc(OC)cc3n2C)CC1)C1CCCCC1` [Example 72, N-(2-(2-(2-(2-((S)-4-(4-Chlorophenyl)-2,3,9-trimethyl-6H-thieno[3,2-f][1,2,4]triazolo[4,3-a][1,4]diazepin-6-yl)acetamido)ethoxy)ethoxy)ethyl)-2-(4-((S)-2-cyclohexyl-2-((S)-2-(methylamino)propanamido)acetyl)piperazine-1-carbonyl)-6-methoxy-1-methyl-1H-indole-3-carboxamide Hydrochloride], the IC50 is less than 300 nM. As to `CN[C@@H](C)C(=O)N[C@H](C(=O)N1CCN(C(=O)c2c(C(=O)NCCOCCOCCOCCNC(=O)C[C@@H]3N=C(c4ccc(Cl)cc4)c4c(sc(C)c4C)-n4c(C)nnc43)c3ccc(OC)cc3n2C)CC1)C1CCCCC1` [Example 73, N-(1-((S)-4-(4-chlorophenyl)-2,3,9-trimethyl-6H-thieno[3,2-f][1,2,4]triazolo[4,3-a][1,4]diazepin-6-yl)-2-oxo-6,9,12-trioxa-3-azatetradecan-14-yl)-2-(4-((S)-2-cyclohexyl-2-((S)-2-(methylamino)propanamido)acetyl)piperazine-1-carbonyl)-6-methoxy-1-methyl-1H-indole-3-carboxamide], the IC50 is less than 300 nM. With `CN[C@@H](C)C(=O)N[C@H](C(=O)N1CCN(C(=O)c2c(C(=O)NCCOCCOCCOCCNC(=O)C[C@@H]3N=C(c4ccc(Cl)cc4)c4c(sc(C)c4C)-n4c(C)nnc43)c3cc(F)c(F)cc3n2C)CC1)C1CCCCC1` [Example 74, N-(1-((S)-4-(4-chlorophenyl)-2,3,9-trimethyl-6H-thieno[3,2-f][1,2,4]triazolo[4,3-a][1,4]diazepin-6-yl)-2-oxo-6,9,12-trioxa-3-azatetradecan-14-yl)-2-(4-((S)-2-cyclohexyl-2-((S)-2-(methylamino)propanamido)acetyl)piperazine-1-carbonyl)-5,6-difluoro-1-methyl-1H-indole-3-carboxamide], the inhibition at 3 µM was in the range of 25 to 50%. Consider `CN[C@@H](C)C(=O)N[C@H](C(=O)N1CCN(C(=O)c2cc3cc(F)ccc3n2CC(=O)NCCOCCNC(=O)C[C@@H]2N=C(c3ccc(Cl)cc3)c3c(sc(C)c3C)-n3c(C)nnc32)CC1)C1CCCCC1` [Example 75, (S)-N-((S)-2-(4-(1-(2-((2-(2-(2-((S)-4-(4-chlorophenyl)-2,3,9-trimethyl-6H-thieno[3,2-f][1,2,4]triazolo[4,3-a][1,4]diazepin-6-yl)acetamido)ethoxy)ethyl)amino)-2-oxoethyl)-5-fluoro-1H-indole-2-carbonyl)piperazin-1-yl)-1-cyclohexyl-2-oxoethyl)-2-(methylamino)propanamide], for which the inhibition at 3 µM is more than 25%. Take `CN[C@@H](C)C(=O)N[C@H](C(=O)N1CCN(C(=O)c2cc3cc(F)ccc3n2CC(=O)NCCOCCOCCNC(=O)C[C@@H]2N=C(c3ccc(Cl)cc3)c3c(sc(C)c3C)-n3c(C)nnc32)CC1)C1CCCCC1` [Example 76, (S)-N-((S)-2-(4-(1-(14-((S)-4-(4-chlorophenyl)-2,3,9-trimethyl-6H-thieno[3,2-f][1,2,4]triazolo[4,3-a][1,4]diazepin-6-yl)-2,13-dioxo-6,9-dioxa-3,12-diazatetradecyl)-5-fluoro-1H-indole-2-carbonyl)piperazin-1-yl)-1-cyclohexyl-2-oxoethyl)-2-(methylamino)propanamide]: the inhibition at 3 µM is more than 25%. With `CN[C@@H](C)C(=O)N[C@H](C(=O)N1CCN(C(=O)c2cc3cc(F)ccc3n2CC(=O)NCCOCCOCCOCCNC(=O)C[C@@H]2N=C(c3ccc(Cl)cc3)c3c(sc(C)c3C)-n3c(C)nnc32)CC1)C1CCCCC1` [Example 77, (S)-N-((S)-2-(4-(1-(17-((S)-4-(4-chlorophenyl)-2,3,9-trimethyl-6H-thieno[3,2-f][1,2,4]triazolo[4,3-a][1,4]diazepin-6-yl)-2,16-dioxo-6,9,12-trioxa-3,15-diazaheptadecyl)-5-fluoro-1H-indole-2-carbonyl)piperazin-1-yl)-1-cyclohexyl-2-oxoethyl)-2-(methylamino)propanamide], the inhibition at 3 µM was more than 25%. Turning to `CN[C@@H](C)C(=O)N[C@H](C(=O)N1CCN(C(=O)c2c(C(=O)NCCOCCOCCOc3ccc(NC(=O)C[C@@H]4N=C(c5ccc(Cl)cc5)c5c(sc(C)c5C)-n5c(C)nnc54)cc3)c3cc(F)c(F)cc3n2C)CC1)C1CCCCC1` [Example 78, N-(2-(2-(2-(4-(2-((S)-4-(4-Chlorophenyl)-2,3,9-trimethyl-6H-thieno[3,2-f][1,2,4]triazolo[4,3-a][1,4]diazepin-6-yl)acetamido)phenoxy)ethoxy)ethoxy)ethyl)-2-(4-((S)-2-cyclohexyl-2-((S)-2-(methylamino)propanamido)acetyl)piperazine-1-carbonyl)-5,6-difluoro-1-methyl-1H-indole-3-carboxamide hydrochloride], the IC50 lay in the range of 300 to 3000 nM. Same read-out and setting: the value for `CN[C@@H](C)C(=O)N[C@H](C(=O)N1CCN(C(=O)c2c(C(=O)NCCOCCOCCOCCOc3ccc(NC(=O)C[C@@H]4N=C(c5ccc(Cl)cc5)c5c(sc(C)c5C)-n5c(C)nnc54)cc3)c3cc(F)c(F)cc3n2C)CC1)C1CCCCC1` [Example 79, N-(2-(2-(2-(2-(4-(2-((S)-4-(4-chlorophenyl)-2,3,9-trimethyl-6H-thieno[3,2-f][1,2,4]triazolo[4,3-a][1,4]diazepin-6-yl)acetamido)phenoxy)ethoxy)ethoxy)ethoxy)ethyl)-2-(4-((S)-2-cyclohexyl-2-((S)-2-(methylamino)propanamido)acetyl)piperazine-1-carbonyl)-5,6-difluoro-1-methyl-1H-indole-3-carboxamide] was 300 to 3000 nM; that for `CN[C@@H](C)C(=O)N[C@H](C(=O)N1CCN(C(=O)c2c(C(=O)NCCOCCOCCOCCN3CCN(c4cc(Nc5ncc(C(=O)Nc6c(C)cccc6Cl)s5)nc(C)n4)CC3)c3cc(F)c(F)cc3n2C)CC1)C1CCCCC1` [Example 82, N-(2-Chloro-6-methylphenyl)-2-((6-(4-(1-(2-(4-((S)-2-cyclohexyl-2-((S)-2-(methylamino)propanamido)acetyl)piperazine-1-carbonyl)-5,6-difluoro-1-methyl-1H-indol-3-yl)-1-oxo-5,8,11-trioxa-2-azatridecan-13-yl)piperazin-1-yl)-2-methylpyrimidin-4-yl)amino)thiazole-5-carboxamide Trifluoroacetate] was 300 to 3000 nM; that for `Cc1nc(Nc2ncc(C(=O)Nc3c(C)cccc3Cl)s2)cc(N2CCN(CCOCCOCCOC[C@H]3CN[C@H](C)CN3CC(=O)N3CCN(C(=O)c4cc5cc(F)c(F)cc5n4C)C[C@H]3C)CC2)n1` [Example 83, N-(2-chloro-6-methylphenyl)-2-((6-(4-(2-(2-(2-(((2R,5R)-1-(2-((R)-4-(5,6-difluoro-1-methyl-1H-indole-2-carbonyl)-2-methylpiperazin-1-yl)-2-oxoethyl)-5-methylpiperazin-2-yl)methoxy)ethoxy)ethoxy)ethyl)piperazin-1-yl)-2-methylpyrimidin-4-yl)amino)thiazole-5-carboxamide] was 3000 to 30000 nM. `CN[C@@H](C)C(=O)N[C@H](C(=O)N1CCN(C(=O)c2c(C(=O)NCCOCCOCCOCC(=O)N3CCN(c4cc(Nc5ncc(C(=O)Nc6c(C)cccc6Cl)s5)nc(C)n4)CC3)c3cc(F)ccc3n2C)CC1)C1CCCCC1` [Example 84, N-(2-chloro-6-methylphenyl)-2-((6-(4-(1-(2-(4-((S)-2-cyclohexyl-2-((S)-2-(methylamino)propanamido)acetyl)piperazine-1-carbonyl)-5-fluoro-1-methyl-1H-indol-3-yl)-1-oxo-5,8,11-trioxa-2-azatridecan-13-oyl)piperazin-1-yl)-2-methylpyrimidin-4-yl)amino)thiazole-5-carboxamide]: the inhibition at 3 µM lay in the range of 50 to 75%.

Take `CN[C@@H](C)C(=O)N[C@H](C(=O)N1CCN(C(=O)c2c(C(=O)NCCOCCOCC(=O)N3CCN(c4cc(Nc5ncc(C(=O)Nc6c(C)cccc6Cl)s5)nc(C)n4)CC3)c3cc(F)ccc3n2C)CC1)C1CCCCC1` [Example 85, N-(2-chloro-6-methylphenyl)-2-((6-(4-(2-(2-(2-(2-(4-((S)-2-cyclohexyl-2-((S)-2-(methylamino)propanamido)acetyl)piperazine-1-carbonyl)-5-fluoro-1-methyl-1H-indole-3-carboxamido)ethoxy)ethoxy)acetyl)piperazin-1-yl)-2-methylpyrimidin-4-yl)amino)thiazole-5-carboxamide]: the inhibition at 3 µM is 50 to 75%.
